{"source": "patent EP0678293A2", "about": "“Composition containing pyridoxine ester, process for the preparation and use thereof” (F. HOFFMANN-LA ROCHE AG, priority 1994, dated 1995)", "key": {"[1]": {"conditions": "cited from earlier work; for Löslichkeit in Fetten: Kummerow, J.Am Oil Chem. Soc. 33 1956, 116"}, "[2]": {"conditions": "direct use in ointments, creams and other skin preparations; no test described; cited from earlier work"}, "[3]": {"experiment": "Solubility of pyridoxine tripropionate in vegetable oil / lipophilic phases", "source_text": "50 Gew% Pyridoxintripropionat werden vorgelegt und in 50 Gew% Pflanzenöl unter starkem Rühren gelöst."}}, "data": [{"compound": "CCCCCCCCCCCCCCCC(=O)OCc1cnc(C)c(OC(=O)CCCCCCCCCCCCCCC)c1COC(=O)CCCCCCCCCCCCCCC", "note": "[Pyridoxintripalmitat]", "values": [{"measurement": "Löslichkeit in Olivenöl", "setting": "[1]; bei 3 °C in Olivenöl, Sakuragi, Kummerow 1956", "result": "0,1%"}]}, {"compound": "CCC(=O)OCc1cnc(C)c(OC(=O)CC)c1COC(=O)CC", "note": "[Pyridoxintripropionat]", "values": [{"measurement": "Löslichkeit in Fetten", "setting": "[1]; Sakuragi", "result": "beinahe unlöslich"}, {"measurement": "Vitamin B₆ Wirksamkeit", "setting": "[2]", "result": "volle"}, {"measurement": "Lösung in Pflanzenöl", "setting": "[3]; 50 Gew% Pyridoxintripropionat in 50 Gew% Pflanzenöl, dissolved with vigorous stirring", "result": "homogene Lösung"}, {"measurement": "löslich in Pflanzenöl", "setting": "[3]; in Pflanzenöl", "result": "≤ 50", "unit": "Gew.%"}]}, {"compound": "Cc1ncc(CO)c(CO)c1O.Cl", "note": "[Pyridoxin-hydrochlorid]", "values": [{"measurement": "Löslichkeit in unpolaren Flüssigkeiten", "setting": "[1]; in unpolaren Flüssigkeiten, background statement", "result": "praktisch unlöslich"}]}, {"compound": "Pyridoxinoctanoat", "values": [{"measurement": "Löslichkeit in Pflanzenölen", "setting": "[1]; in Pflanzenölen, Sakuragi, Kummerow 1956", "result": "≤ 1", "unit": "%"}]}, {"compound": "CC(=O)OCc1cnc(C)c(OC(C)=O)c1COC(C)=O", "note": "[Pyridoxintriacetat]", "values": [{"measurement": "Löslichkeit in Fetten", "setting": "[1]; Sakuragi", "result": "beinahe unlöslich"}]}]}
